Test results reported in US20230117034A1, “PYRAZOLOTRIAZINES” (Bayer Aktiengesellschaft, priority 2019, published 2023).

How the values were obtained:
CDK9/CycT1 = target: T1, CDK9/CycT1 (Homo sapiens, UniProt P50750); experiment: CDK9/CycT1 high ATP kinase assay (TR-FRET, 2 mM ATP); format: biochemical; conditions: 2 mM ATP (high ATP); median; read-out: CDK9/CyclinT1, 2 mM ATP (high ATP), IC50 (median)
T1 construct: Recombinant full-length His-tagged human CDK9 and CycT1; purchased Life Technologies PV4131; host or cells: insect cells
T1 sequence (P50750 whole entry): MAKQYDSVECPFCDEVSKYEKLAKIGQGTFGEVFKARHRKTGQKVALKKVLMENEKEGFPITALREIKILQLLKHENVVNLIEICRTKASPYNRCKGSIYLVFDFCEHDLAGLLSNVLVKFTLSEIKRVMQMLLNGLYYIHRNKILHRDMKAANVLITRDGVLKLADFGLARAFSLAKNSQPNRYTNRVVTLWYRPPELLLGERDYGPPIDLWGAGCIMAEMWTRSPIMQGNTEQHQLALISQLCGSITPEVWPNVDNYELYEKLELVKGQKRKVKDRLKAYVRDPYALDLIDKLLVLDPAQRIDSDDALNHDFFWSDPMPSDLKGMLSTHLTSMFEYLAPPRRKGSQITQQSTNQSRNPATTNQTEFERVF
T1 sequence (O60563 whole entry partner): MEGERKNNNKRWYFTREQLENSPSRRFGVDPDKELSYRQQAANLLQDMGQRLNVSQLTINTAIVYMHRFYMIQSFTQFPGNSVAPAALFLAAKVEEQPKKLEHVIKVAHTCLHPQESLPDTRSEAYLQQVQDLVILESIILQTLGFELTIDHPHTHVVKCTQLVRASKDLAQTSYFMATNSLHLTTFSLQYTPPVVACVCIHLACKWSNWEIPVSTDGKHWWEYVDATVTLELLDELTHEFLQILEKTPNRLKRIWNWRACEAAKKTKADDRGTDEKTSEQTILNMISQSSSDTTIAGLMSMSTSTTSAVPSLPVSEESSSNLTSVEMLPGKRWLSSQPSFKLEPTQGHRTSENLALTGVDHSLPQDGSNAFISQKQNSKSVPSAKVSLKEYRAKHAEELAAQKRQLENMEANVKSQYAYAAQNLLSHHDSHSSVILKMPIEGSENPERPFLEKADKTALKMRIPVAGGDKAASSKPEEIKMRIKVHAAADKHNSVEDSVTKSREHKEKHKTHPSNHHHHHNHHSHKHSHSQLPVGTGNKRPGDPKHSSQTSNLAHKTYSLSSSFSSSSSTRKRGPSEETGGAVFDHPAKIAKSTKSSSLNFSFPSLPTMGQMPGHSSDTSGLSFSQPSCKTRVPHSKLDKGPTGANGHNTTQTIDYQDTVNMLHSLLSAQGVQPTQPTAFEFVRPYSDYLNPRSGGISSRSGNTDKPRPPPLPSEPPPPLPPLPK
Outline: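 Full-length His-tagged human CDK9/CycT1 (insect cell, ~0.5 μg/mL) preincubated 15 min at 22 °C with compound in Tris pH 8.0, MgCl2, DTT buffer before reaction with biotinylated peptide substrate at high ATP (2 mM).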

[1] = tested on: CAL-120, human breast adenocarcinoma cells; experiment: Proliferation assay CAL-120 (crystal violet, 4 days); format: cell-based; conditions: Homo sapiens, CAL-120, 96 h, CAL-120 cells, median, read-out: Prolif-CAL-120, IC50-[mol/l] (median)
Outline: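 IC50 from a 4-parameter fit of crystal violet absorbance (595 nm), scaled between a day-0 plate (0%) and untreated wells (100%). Cells grown in 10% FCS medium were exposed to test substances at 0.01-10 µmol/L for 4 days, 0.1% DMSO final.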

[2] = target: T2, CDK12 (nuclear staining in CAL-120 cells) (Homo sapiens, UniProt Q9NYV4); experiment: CDK12 nuclear protein level: immunofluorescence/high content analysis (CAL-120); format: cell-based; conditions: for DC50: CAL-120 cells, 24 h, immunofluorescence, 50% reduction of nuclear CDK12 staining intensity, median, read-out: CDK12 degradation IF, DC50- [mol/l] (median); for (IC50 CDK12 high ATP) to (Degradation DC50 CDK12) ratio: ratio of IC50 CDK12 high ATP kinase assay to DC50 CDK12 degradation (IF, CAL-120)
T2 construct: endogenous in cells; host or cells: CAL-120 human breast cancer cells (DSMZ ACC 459)
T2 sequence (Q9NYV4 whole entry): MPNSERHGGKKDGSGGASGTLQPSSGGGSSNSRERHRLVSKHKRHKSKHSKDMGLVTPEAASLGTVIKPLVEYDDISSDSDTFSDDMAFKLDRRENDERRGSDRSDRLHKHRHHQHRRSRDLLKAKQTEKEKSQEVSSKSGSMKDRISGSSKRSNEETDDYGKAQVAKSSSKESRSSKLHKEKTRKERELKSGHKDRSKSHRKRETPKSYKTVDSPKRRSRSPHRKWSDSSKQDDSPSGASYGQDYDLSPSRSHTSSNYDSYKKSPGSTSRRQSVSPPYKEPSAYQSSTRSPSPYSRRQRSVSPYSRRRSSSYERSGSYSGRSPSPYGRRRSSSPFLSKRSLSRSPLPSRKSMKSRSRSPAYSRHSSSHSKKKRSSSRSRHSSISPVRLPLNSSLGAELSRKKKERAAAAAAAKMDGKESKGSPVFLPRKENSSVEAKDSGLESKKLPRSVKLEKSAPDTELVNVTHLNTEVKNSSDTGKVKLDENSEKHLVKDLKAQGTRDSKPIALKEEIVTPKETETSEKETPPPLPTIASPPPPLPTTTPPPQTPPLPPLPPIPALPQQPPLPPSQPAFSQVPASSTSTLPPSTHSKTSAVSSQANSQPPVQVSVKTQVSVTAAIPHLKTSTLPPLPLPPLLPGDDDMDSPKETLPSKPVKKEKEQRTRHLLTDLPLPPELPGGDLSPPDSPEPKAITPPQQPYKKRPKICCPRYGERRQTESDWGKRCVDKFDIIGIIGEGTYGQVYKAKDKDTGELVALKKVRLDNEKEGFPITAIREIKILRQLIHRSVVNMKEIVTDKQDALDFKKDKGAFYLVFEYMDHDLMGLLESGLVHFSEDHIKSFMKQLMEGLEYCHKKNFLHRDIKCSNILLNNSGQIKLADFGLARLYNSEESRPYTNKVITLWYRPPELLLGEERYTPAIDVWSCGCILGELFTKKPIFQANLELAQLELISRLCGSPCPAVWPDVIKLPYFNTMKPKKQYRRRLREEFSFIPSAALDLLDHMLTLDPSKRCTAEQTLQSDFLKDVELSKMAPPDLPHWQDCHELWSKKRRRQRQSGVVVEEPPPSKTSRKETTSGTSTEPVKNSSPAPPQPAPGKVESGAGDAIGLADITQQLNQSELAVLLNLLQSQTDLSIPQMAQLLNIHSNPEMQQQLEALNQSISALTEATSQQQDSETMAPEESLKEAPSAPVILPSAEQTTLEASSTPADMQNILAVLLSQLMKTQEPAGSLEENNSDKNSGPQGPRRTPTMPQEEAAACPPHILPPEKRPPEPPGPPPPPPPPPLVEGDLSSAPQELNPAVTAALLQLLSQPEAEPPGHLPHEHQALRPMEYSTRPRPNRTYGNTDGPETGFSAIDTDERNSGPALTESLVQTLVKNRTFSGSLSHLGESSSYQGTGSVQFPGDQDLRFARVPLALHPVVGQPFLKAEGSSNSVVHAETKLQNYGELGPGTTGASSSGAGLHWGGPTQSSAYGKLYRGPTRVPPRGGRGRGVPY
T2 sequence (O75909 whole entry partner): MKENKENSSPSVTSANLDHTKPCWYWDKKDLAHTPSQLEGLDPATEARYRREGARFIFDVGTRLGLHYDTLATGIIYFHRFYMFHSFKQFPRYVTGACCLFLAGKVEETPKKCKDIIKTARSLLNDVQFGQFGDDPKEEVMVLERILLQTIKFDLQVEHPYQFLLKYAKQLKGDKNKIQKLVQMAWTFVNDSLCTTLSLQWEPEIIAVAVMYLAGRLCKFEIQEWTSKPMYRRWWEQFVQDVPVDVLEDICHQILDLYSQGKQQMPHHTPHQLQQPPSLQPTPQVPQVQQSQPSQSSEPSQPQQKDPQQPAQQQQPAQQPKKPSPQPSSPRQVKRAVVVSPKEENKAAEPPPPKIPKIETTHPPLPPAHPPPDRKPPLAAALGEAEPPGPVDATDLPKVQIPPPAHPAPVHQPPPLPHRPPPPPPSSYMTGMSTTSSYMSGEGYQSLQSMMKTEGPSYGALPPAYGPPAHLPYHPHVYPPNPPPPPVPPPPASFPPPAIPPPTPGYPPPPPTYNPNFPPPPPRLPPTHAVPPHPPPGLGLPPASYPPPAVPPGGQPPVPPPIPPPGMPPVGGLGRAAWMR
Outline: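 DC50 is the degrader concentration that halves nuclear CDK12 immunofluorescence relative to controls, measured by high-content imaging. CAL-120 cells were exposed to compound for 24 h at 37 °C before PFA fixation, and signal was normalized to DMSO and control wells.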

SMILES | IC50 (CDK9/CycT1) | IC50 [1] | DC50 [2] | (IC50 CDK12 high ATP) to (Degradation DC50 CDK12) ratio [2]
CN1CCN(c2nc(NCc3nc4ccccc4[nH]3)n3ncc(Br)c3n2)CC1=O [Example 131, 4-(4-{[(1H-benzimidazol-2-yl)methyl]amino}-8-bromopyrazolo[1,5-a][1,3,5]triazin-2-yl)-1-methylpiperazin-2-one] | > 20000 nM | 595 nM | 122 nM | 91
Cc1ccc2[nH]c(CNc3nc(N4CCOCC4)nc4c(Br)cnn34)nc2c1 [Example 157, 8-bromo-N-[(5-methyl-1H-benzimidazol-2-yl)methyl]-2-(morpholin-4-yl)pyrazolo[1,5-a][1,3,5]triazin-4-amine] | > 20000 nM | 1.78 nM | 0.62 nM | 1089
Clc1ccc2[nH]c(CNc3nc(N4CCOCC4)nc4c(Br)cnn34)nc2c1 [Example 162, 8-bromo-N-[(5-chloro-1H-benzimidazol-2-yl)methyl]-2-(morpholin-4-yl)pyrazolo[1,5-a][1,3,5]triazin-4-amine] | 17400 nM | 1.55 nM | 0.471 nM | 2160
Fc1ccc(-c2cnn3c(NCc4nc5ccccc5[nH]4)nc(N4CCOCC4)nc23)cc1 [Example 106, N-[(1H-benzimidazol-2-yl)methyl]-8-(4-fluorophenyl)-2-(morpholin-4-yl)pyrazolo[1,5-a][1,3,5]triazin-4-amine] | > 20000 nM | 47 nM | 11.4 nM | >876
Brc1cnn2c(NCc3nnc(-c4ccccc4)[nH]3)nc(N3C[C@@H]4C[C@H]3CO4)nc12 [Example 120, 8-bromo-2-[(1S,4S)-2-oxa-5-azabicyclo[2.2.1]heptan-5-yl]-N-[(5-phenyl-4H-1,2,4-triazol-3-yl)methyl]pyrazolo[1,5-a][1,3,5]triazin-4-amine] | 10400 nM | 25.4 nM | 5.08 nM | 2588
N=S1(=O)CCN(c2nc(NCc3nc4ccccc4[nH]3)n3ncc(Br)c3n2)CC1 [Example 145, 4-(4-{[(1H-benzimidazol-2-yl)methyl]amino}-8-bromopyrazolo[1,5-a][1,3,5]triazin-2-yl)-1-imino-1lambda^6-thiomorpholin-1-one] | > 20000 nM | 223 nM | 16.8 nM | 751

Now those with a lower IC50 (CDK9/CycT1), led by results:

IC50 (CDK9/CycT1) | IC50 [1] | DC50 [2] | (IC50 CDK12 high ATP) to (Degradation DC50 CDK12) ratio [2] | SMILES
6210 nM | 7.75 nM | 1.54 nM | 4303 | Brc1cnn2c(NCc3nnc(-c4ccccc4)[nH]3)nc(N3CCNCC3)nc12.O=CO [Example 119, 8-bromo-N-[(5-phenyl-4H-1,2,4-triazol-3-yl)methyl]-2-piperazin-1-yl-pyrazolo[1,5-a][1,3,5]triazin-4-amine formate]
4260 nM | 18.5 nM | 2.47 nM | >8081 | C[C@H]1CN(c2nc(NCc3nnc(-c4ccccc4)[nH]3)n3ncc(Br)c3n2)CCN1C.O=CO [Example 122, 8-bromo-2-[(3S)-3,4-dimethylpiperazin-1-yl]-N-[(5-phenyl-4H-1,2,4-triazol-3-yl)methyl]pyrazolo[1,5-a][1,3,5]triazin-4-amine formate]
2560 nM | 7.69 nM | 5.27 nM | 1360 | C[C@H]1CN(c2nc(NCc3nnc(-c4cccc(F)c4)[nH]3)n3ncc(Br)c3n2)CCN1C [Example 154, 8-bromo-2-[(3S)-3,4-dimethylpiperazin-1-yl]-N-{[5-(3-fluorophenyl)-4H-1,2,4-triazol-3-yl]methyl}pyrazolo[1,5-a][1,3,5]triazin-4-amine]
4860 nM | 34.8 nM | 3.31 nM | 2547 | C[C@@H]1CN(c2nc(NCc3nnc(-c4ccccc4)[nH]3)n3ncc(Br)c3n2)CCN1C.O=CO [Example 130, 8-bromo-2-[(3R)-3,4-dimethylpiperazin-1-yl]-N-[(5-phenyl-4H-1,2,4-triazol-3-yl)methyl]pyrazolo[1,5-a][1,3,5]triazin-4-amine formate]
